Data published in patent US6566359B1, “2,4,6-trimethyl-1,4-dihydro-pyridine-3,5-dicarboxylic acid esters as neuroprotective drugs” (Board of Supervisors of Louisiana State University and …, priority 2002, dated 2003).
“And” between values parts separate entries of the source, which are not always exact repeats. Identical values can stand only once.

Key:
[1] = biological target: intracellular type PAF receptor (rat brain microsomal preparations) (Rattus norvegicus, UniProt P46002); experiment: Competition for 3H-PAF binding to rat brain cortex microsomal membranes; details: rat brain cortex microsomal preparation
intracellular type PAF receptor (rat brain microsomal preparations), sequence (P46002 whole entry): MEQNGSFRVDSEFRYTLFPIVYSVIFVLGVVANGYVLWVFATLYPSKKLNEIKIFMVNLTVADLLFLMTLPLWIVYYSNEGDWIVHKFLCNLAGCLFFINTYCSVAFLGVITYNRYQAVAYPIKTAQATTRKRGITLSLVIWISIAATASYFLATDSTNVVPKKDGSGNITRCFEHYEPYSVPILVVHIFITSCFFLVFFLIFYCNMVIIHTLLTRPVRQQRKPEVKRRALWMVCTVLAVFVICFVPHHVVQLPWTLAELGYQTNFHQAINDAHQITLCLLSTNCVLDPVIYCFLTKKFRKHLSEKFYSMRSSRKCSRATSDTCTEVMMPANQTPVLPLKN
Procedure: (§1) Binding studies were performed on subcellular fractions of tissues obtained from rat brain cortex, according to procedures described in V. Marcheselli et al., “Distinct platelet-activating factor binding sites in synaptic endings and in intracellular membranes of rat cerebral cortex,” J. biol. Chem., vol. 265, pp. 9140-9145 (1990). Freshly dissected brain tissues were homogenized in ice-cold buffer (50 mM Tris-HCl, 2 mM EGTA, 5 mM PMSF, 250 mM sucrose, 7.4 pH). Subcellular fractions were obtained by differential centrifugation. The microsomal fraction was sedimented after 100,000×g for 1 hour centrifugation. In addition, three cell lines from Chinese hamster ovary (CHO) with varying expression of PAF receptors, CHO-A, CHO-B, and CHO-C cells (from Dr. Takao Shiizu, University of Tokyo, Tokyo, Japan) were cultured to the fourth-passage cells. These cells were cultured to confluence, then detached from their culturing flasks, and pelleted by rapid centrifugation (3,000 rpm, 10 min). Cellular pellets were homogenized in ice-cold buffer as described above. Freshly obtained microsomal fractions or CHO cellular homogenates were utilized for saturation, displacement, and competition studies using ^3H-PAF as the hot ligand, unlabeled-PAF to detect non-specific binding, and a LAU-0900 series compound to displace by competition ^3H-PAF bound to a receptor.

[2] = biological target: T1, cell-surface-type PAF receptor over-expressed in CHO-B cells (Cavia porcellus, UniProt P21556); experiment: Competition for 3H-PAF binding to CHO-B cell homogenates
T1 construct: expressed in transfected cells; host or cells: Chinese hamster ovary cells: CHO-B (high expression) and CHO-A (mild expression), used as cell homogenates
T1 sequence (P21556 whole entry): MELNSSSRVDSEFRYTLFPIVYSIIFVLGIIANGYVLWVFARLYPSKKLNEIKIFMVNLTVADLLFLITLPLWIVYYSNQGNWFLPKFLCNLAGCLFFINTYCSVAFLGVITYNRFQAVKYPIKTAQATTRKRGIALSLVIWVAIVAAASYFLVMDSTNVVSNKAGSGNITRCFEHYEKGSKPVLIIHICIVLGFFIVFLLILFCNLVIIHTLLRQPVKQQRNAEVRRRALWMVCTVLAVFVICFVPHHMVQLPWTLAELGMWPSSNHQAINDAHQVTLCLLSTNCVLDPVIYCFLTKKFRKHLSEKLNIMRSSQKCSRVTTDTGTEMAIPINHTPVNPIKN
Procedure: as §1
(§2) See B. Liu et al., “Implication of protein kinase C alpha in PAF-stimulated phospholipase D Activation in Chinese hamster ovary (CHO) cells expressing PAF receptor,” Biochem. Biophys. Res. Commun., vol.214, pp.418-423 (1995). […] Both the constants of inhibition (KI) and 50% of inhibitory activity (IC50) were significant at a low concentration of LAU-0903.

[3] = biological target: T2, PAF receptor in CHO-A cells (moderately exp PAF-R) (Cavia porcellus, UniProt P21556); experiment: Competition for 3H-PAF binding to CHO-A cell homogenates
T2 construct: expressed in transfected cells; host or cells: Chinese hamster ovary cells: CHO-B (high expression) and CHO-A (mild expression), used as cell homogenates
T2 sequence (P21556 whole entry): as above
Procedure: Binding studies were performed on subcellular fractions of tissues obtained from rat brain cortex, according to procedures described in V. Marcheselli et al., “Distinct platelet-activating factor binding sites in synaptic endings and in intracellular membranes of rat cerebral cortex,” J. biol. Chem., vol. 265, pp. 9140-9145 (1990). Freshly dissected brain tissues were homogenized in ice-cold buffer (50 mM Tris-HCl, 2 mM EGTA, 5 mM PMSF, 250 mM sucrose, 7.4 pH). Subcellular fractions were obtained by differential centrifugation. The microsomal fraction was sedimented after 100,000×g for 1 hour centrifugation. In addition, three cell lines from Chinese hamster ovary (CHO) with varying expression of PAF receptors, CHO-A, CHO-B, and CHO-C cells (from Dr. Takao Shiizu, University of Tokyo, Tokyo, Japan) were cultured to the fourth-passage cells. These cells were cultured to confluence, then detached from their culturing flasks, and pelleted by rapid centrifugation (3,000 rpm, 10 min). Cellular pellets were homogenized in ice-cold buffer as described above. Freshly obtained microsomal fractions or CHO cellular homogenates were utilized for saturation, displacement, and competition studies using ^3H-PAF as the hot ligand, unlabeled-PAF to detect non-specific binding, and a LAU-0900 series compound to displace by competition ^3H-PAF bound to a receptor. […]

[4] = system: CHO-C cells (do not exp PAF-R); experiment: Competition for 3H-PAF binding to CHO-C cell homogenates
Procedure: as §1, §2

human COX-2 promoter [5] = experiment: PAF-induced COX-2 promoter-luciferase transcription in CV-1 cells; assay type: cell-based; details: 100 nM compound, 100 nM PAF
Procedure: (§3) To test the ability of LAU-0900 series compounds to inhibit COX-2 expression, a kidney cell line was transiently transfected with the 830-base-pair human COX-2 promoter construct (proximal to the transcription start site) fused to the luciferase gene as a reporter as described below.
(§4) Transfection of CV-1 cells with human COX-2promoterfused with LUC: C V-1 Cells (African green monkey kidney cell line, ATCC # CCL-17) were grown in DMEM-F12 (GIBCO-BRL, Rockville, Md.) supplemented with 10% FBS (fetal bovine serum) in 6-well plates. At 80% confluence, the cells were transfected with 10 μg human COX-2 promoter-LUC construct (containing 830 base pairs of the human COX-2 promoter (donated by Dr. Stephen Prescot, Huntsman Cancer Institute, Salt Lake City, Utah) using a liposomal transfection reagent (DOTAP, Roche Diagnostics, Gmbh, Mannheim, Germany). Promoterless β-galactosidase construct (Promega, Madison, Wis.) was co-transfected to assess transfection efficiency. Three hours after transfection at 37° C., the medium was removed, and the cells were washed with phonsphate-buffered saline solution, pH 7.2 (PBS; Gibco-BRL, Rockville Md. The plates were further incubated at 37° C. in complete medium DMEM-F12 with 10% FBS for about 8-10 hr. Before the addition of the inducers of COX-2, PAF (100 nM) or IL-1β (10 ng/ml), the CV-1-transfected cells were serum-starved for 8 hr at 37° C. After the addition of the inducers, the cells were incubated for 8-10 hr at 37° C. Then the medium was removed, the cells were washed with PBS, harvested, and frozen at −80° C. until used for assays.
(§5) To test the effectiveness of the LAU-0900 series compounds, the transfected cells were treated for 1 hr with 100 nM of various LAU-0900 series compounds before the addition of the inducers (either PAF or IL-1β, and the LAU-0900 compound remained in the medium throughout the incubation period.
(§6) Luciferase assay of transfected CV-1 cells: Frozen cells were homogenized in 300 μl luciferase assay buffer (“ALL”, Analytical Luminescence Laboratory, San Diego, Calif.), and cellular debris was collected as a pellet by centrifugation at 2800×g for 20 min at 4° C. Supernatants (20-30 μl) were normalized to 1 μg/ml of total protein content, and were mixed with 70-80 μl ALL buffer. Reactions were initiated by injection of 100 μl of 1 mM luciferin (Sigma Chemical Co., St. Louis, Mo.). The relative light units were determined by using an ALL luminometer that recorded over 20-second intervals.

human COX-2 promoter [6] = experiment: IL-1β-induced COX-2 promoter-luciferase transcription in CV-1 cells; assay type: cell-based; details: 100 nM compound, 10 nM IL-1β
Procedure: as §3, §4, §5, §6

COX-2 mRNA = COX-2 mRNA expression after cryogenic injury (vasogenic cerebral edema), Northern blot; assay type: in vivo, Sprague-Dawley rats; details: rat
Procedure: Brain COX-2 gene expression is known to be enhanced as a result of injury as well as by seizures (Marcheselli and Bazan, 1996), and PAF receptors are involved in COX-2 expression (Bazan et al, 1994). To further test the LAU-0900 series compounds as PAF antagonists, the compounds were tested in an in vivo model for the potential blocking of injury-induced COX-2 induction. Adult Sprague-Dawley rats, 175 to 250 g body weight, were purchased from a commercial breeder (Charles River Laboratories, Wilmington, Mass.). One group of four rats received an intra-cerebroventricular injection of LAU-0903 (10 mg/kg in DMSO as a vehicle), 15 min before the generation of cerebral edema. Another group of four rats received an intraperitoneal injection of desxmethasone every 8 hr for a period of 24 hr prior to injury. Animals were immobilized by ether anesthesia, and vasogenic cerebral edema was generated by the application of a liquid nitrogen-cooled probe for 1 min on the parietal region of the skull. The rats were allowed to recover for either 2 or 6 hr before being decapitated to sample the brain. Total brain tissues were obtained, and total-RNA was extracted. The RNA was then assayed by Northern blot analysis for COX-2 mRNA. […] Autoradiography or phosphorimage quantification was performed.

[7] = Evans Blue accumulation in brain cortex in vasogenic cerebral edema; assay type: in vivo, rat; details: LAU-0903 30 μg/kg intra-ventricularly 15 min before injury; dexamethasone 6.2 μg/kg i.p. every 8 hr for 24 hr; 2 hr and 12 hr after injury
[8] = Middle cerebral artery occlusion (MCA-O) stroke model, infarct volume by TTC; assay type: in vivo, C57BL/6 mice; details: 30 mg/kg 1 hr after reperfusion following 1 hr of MCA-O
[9] = MCA-O with 21 days reperfusion, Cresil-Violet histology; assay type: in vivo, C57-bl/6 mice; details: 30 mg/kg i.p. once 1 hr after onset of reperfusion
Procedure: In a second group of experiments, C57-bl/6 mice were treated with either a sham procedure, or with 1 hr with MCA-O followed by a reperfusion period of 21 days. Cresil-violet staining was used to assess brain damage in brain slices obtained as above. […] (Data not shown.). […] (Data not shown).
In a third set of experiments, the MCA-O treated mice were injected once with the LAU-0900 series compounds (LAU-0901, LAU-0904, and LAU-0911; at 30 mg/kg) or vehicle 1 hr after the onset of reperfusion. The LAU-0900 compounds were solubilized in 45% 2-hydroxypropyl-β-cyclodextrine (Sigma Chemical Co.), and delivered intraperitoneally. The mice were reperfused for 21 days, and killed. Coronal sections of mouse brains were processed for histology, and stained with Cresil-Violet. Sections from individual animals were analyzed, with pictures of the right side (infarcted) of the brain compared to the left side, which show almost no damage.
(Data not shown). […] Almost normal morphology was found in the brains of the LAU-0900-treated animals, indicating a high degree of protection. (Data not shown), even though administered 1 hr after the initiation of reperfusion.

SMILES	Competitive activity at 3H-PAF binding sites (curve profile) [1]	Significance of 3H-PAF displacement ([2]; CHO-B cell homogenates)	IC50 ([2]; CHO-B homogenates (heavily overexpress PAF-R))	KI ([3]; CHO-A homogenates)	IC50 ([3]; CHO-A homogenates (moderately express PAF-R))	KI ([4]; CHO-C homogenates)	IC50 ([4]; CHO-C homogenates (do not express PAF-R))	Inhibition of COX-2 transcription induced by PAF (human COX-2 promoter [5])	Inhibition of COX-2 transcription induced by IL-1β (human COX-2 promoter [6])	Inhibition of cryogenically induced COX-2 mRNA (COX-2 mRNA; 10 mg/kg intra-cerebroventricular 15 min before injury)	Duration of COX-2 mRNA inhibition after a single injection (COX-2 mRNA; 10 mg/kg intra-cerebroventricular)	Effect on accumulation of Evans Blue in brain cortex [7]	Reduction of infarcted volume [8]	Protection from brain damage (Cresil-Violet histology) [9]
COC(=O)C1=C(C)NC(C)=C(C(=O)OCCCSc2ccc(-n3ccnc3)cc2)C1C (stereo not shown) [LAU-0903, 2,4,6-Trimethyl-1,4-dihydro-pyridine-3,5-dicarboxylic acid 5-[3-(imidazol-1-yl-phenylsulphanyl)]-propyl-1-ester 3-methyl ester]	competitive activity at both binding sites	significant displacement	~0.0538 nM and 0.0538 nM	No displacement	No displacement	No displacement	No displacement	inhibited	inhibited	more than 50%	up to 6 hours	protective effect		
COC(=O)C1=C(C)NC(C)=C(C(=O)OCCCOc2cc(OC)c(OC)c(OC)c2)C1C (stereo not shown) [LAU-0911, 2,4,6-Trimethyl-1,4-dihydro-pyridine-3,5-dicarboxylic acid 5-(3,4,5-trimethoxyphenoxy)-propyl-1-ester 3-methyl ester]								inhibited	inhibited				40%	significant protection
